# Experimental data reported in paper PMC6222614, “Disubstituted 4-Chloro-3-nitrophenylthiourea Derivatives: Antimicrobial and Cytotoxic Studies” (Molecules : A Journal of Synthetic Chemistry and Natural …, 2018).
# pEC50: −log10 of the molar value. Read-outs that look alike come from different tables or passages of the source.
# What was measured:
# [1] = test system: S. epidermidis MRSE 405/11; assay: MIC, hospital methicillin-resistant strain; format: cell-based; settings: Staphylococcus epidermidis
# Description: (§1) The antimicrobial activity of the compounds was tested on Gram-positive bacteria (Staphylococcus aureus NCTC 4163, Staphylococcus aureus ATCC 25923, Staphylococcus aureus ATCC 6538, Staphylococcus aureus ATCC 29213, Staphylococcus epidermidis ATCC 12228, Staphylococcus epidermidis ATCC 35984, Enterococcus faecalis ATCC 29212, Bacillus subtilis ATCC 6633, Bacillus cereus ATCC 11778, Micrococcus luteus ATCC 9341, Micrococcus luteus ATCC 10240); Gram-negative rods (Escherichia coli ATCC 10538, Escherichia coli ATCC 25922, Escherichia coli NCTC 8196, Proteus vulgaris NCTC 4635, Pseudomonas aeruginosa ATCC 15442, Pseudomonas aeruginosa NCTC 6749, Pseudomonas aeruginosa ATCC 27863, Bordetella bronchiseptica ATCC 4617) and yeasts (Candida albicans ATCC 10231, Candida albicans ATCC 90028, Candida parapsilosis ATCC 22019). Other microorganisms used were obtained from the collection of the Department of Pharmaceutical Microbiology, Medical University of Warsaw, Poland.
# (§2) Antibacterial activity was examined by the disc-diffusion method under standard conditions using Mueller-Hinton II agar medium (Becton Dickinson) according to CLSI (previously NCCLS) guidelines. Antifungal activities were assessed using Mueller-Hinton agar + 2% glucose and 0.5 µg/mL Methylene Blue Dye Medium. Sterile filter paper discs (9 mm diameter, Whatman No 3 chromatography paper) were dripped with tested compound solutions (in DMSO) to load 400 μg of a given compound per disc. Dry discs were placed on the surface of appropriate agar medium. The results (diameter of the growth inhibition zone) were read after 18 h of incubation at 35 °C. Minimal Inhibitory Concentration (MIC) was tested by the twofold serial microdilution method (in 96-well microtiter plates) using Mueller-Hinton Broth medium (Beckton Dickinson) for bacteria or RPMI-1640 medium for Candida species according to CLSI guidelines. The stock solution of tested agent was prepared in DMSO and diluted in sterile water. Concentrations of tested agents ranged from 0.125 to 512 µg/mL. The final inoculum of all studied microorganisms was 10^5 CFU/ mL^−1 (colony forming units per mL). Minimal inhibitory concentrations (the lowest concentration of a tested agent that prevents visible growth of a microorganism) were read after 18 h (bacteria) or 24 h (yeasts) of incubation at 35 °C.
# [2] = test system: S. epidermidis MRSE 413/11; assay: MIC, hospital methicillin-resistant strain; format: cell-based; settings: Staphylococcus epidermidis
# Description: as §1, §2
# [3] = test system: S. epidermidis MRSE 409/11; assay: MIC, hospital methicillin-resistant strain; format: cell-based; settings: Staphylococcus epidermidis
# Description: as §1, §2
# [4] = test system: S. epidermidis MRSE 422/11; assay: MIC, hospital methicillin-resistant strain; format: cell-based; settings: Staphylococcus epidermidis
# Description: as §1, §2
# [5] = test system: S. epidermidis MRSE 411/11; assay: MIC, hospital methicillin-resistant strain; format: cell-based; settings: Staphylococcus epidermidis
# Description: as §1, §2
# [6] = test system: S. epidermidis MRSE 412/11; assay: MIC, hospital methicillin-resistant strain; format: cell-based; settings: Staphylococcus epidermidis
# Description: as §1, §2
# [7] = test system: S. epidermidis MRSE 404/11; assay: MIC, hospital methicillin-resistant strain; format: cell-based; settings: Staphylococcus epidermidis
# Description: as §1, §2
# [8] = test system: S. epidermidis MRSE 407/11; assay: MIC, hospital methicillin-resistant strain; format: cell-based; settings: Staphylococcus epidermidis
# Description: as §1, §2
# [9] = test system: S. epidermidis MRSE 406/11; assay: MIC, hospital methicillin-resistant strain; format: cell-based; settings: Staphylococcus epidermidis
# Description: as §1, §2
# [10] = test system: S. epidermidis MRSE 403/11; assay: MIC, hospital methicillin-resistant strain; format: cell-based; settings: Staphylococcus epidermidis
# Description: as §1, §2
# [11] = test system: S. epidermidis ATCC 35984; assay: MIC, twofold serial microdilution; format: cell-based; settings: Staphylococcus epidermidis, ATCC35984; standard strain, 18 h, 35 °C
# Description: as §1, §2
# [12] = test system: M. luteus ATCC 10240; assay: MIC, twofold serial microdilution; format: cell-based; settings: Micrococcus luteus, ATCC10240; standard strain, 18 h, 35 °C
# Description: as §1, §2
# [13] = test system: E. faecalis ATCC 29212; assay: MIC, twofold serial microdilution; format: cell-based; settings: Enterococcus faecalis, ATCC29212; standard strain, 18 h, 35 °C
# Description: as §1, §2
# [14] = test system: S. aureus ATCC 25923; assay: MIC, twofold serial microdilution; format: cell-based; settings: Staphylococcus aureus, ATCC25923; standard strain, 18 h, 35 °C
# Description: as §1, §2
# [15] = test system: B. subtilis ATCC 6633; assay: MIC, twofold serial microdilution; format: cell-based; settings: Bacillus subtilis, ATCC6633; standard strain, 18 h, 35 °C
# Description: as §1, §2
# [16] = test system: S. aureus ATCC 6538; assay: MIC, twofold serial microdilution; format: cell-based; settings: Staphylococcus aureus, ATCC6538; standard strain, 18 h, 35 °C
# Description: as §1, §2
# [17] = test system: B. cereus ATCC 11778; assay: MIC, twofold serial microdilution; format: cell-based; settings: Bacillus cereus, ATCC11778; standard strain, 18 h, 35 °C
# Description: as §1, §2
# [18] = test system: M. luteus ATCC 9341; assay: MIC, twofold serial microdilution; format: cell-based; settings: Micrococcus luteus, ATCC9341; standard strain, 18 h, 35 °C
# Description: as §1, §2
# [19] = test system: S. aureus NCTC 4163; assay: MIC, twofold serial microdilution; format: cell-based; settings: Staphylococcus aureus, NCTC4163; standard strain, 18 h, 35 °C
# Description: as §1, §2
# [20] = test system: S. epidermidis ATCC 12228; assay: MIC, twofold serial microdilution; format: cell-based; settings: Staphylococcus epidermidis, ATCC12228; standard strain, 18 h, 35 °C
# Description: as §1, §2
# [21] = test system: S. aureus ATCC 29213; assay: MIC, twofold serial microdilution; format: cell-based; settings: Staphylococcus aureus, ATCC29213; standard strain, 18 h, 35 °C
# Description: as §1, §2
# [22] = test system: staphylococci; assay: MIC against staphylococci; format: cell-based; settings: moderate activity
# Description: as §1, §2
# [23] = Cytotoxicity against mock-infected MT-4 cells (MTT); format: cell-based, human; settings: human, concentration reducing viability of mock-infected MT-4 cells by 50%
# Description: (§3) Cell line supporting the multiplication of Human Immunodeficiency Virus type-1 (HIV-1) was the CD4+ human T-cells, derived from human hematological tumors, containing an integrated HTLV-1 genome (MT-4). Cells were purchased from American Type Culture Collection (ATCC). Human Immunodeficiency Virus type-1 (HIV-1) IIIB laboratory strain was obtained from the supernatant of the persistently infected H9/IIIB cells (NIH 1983).
# Exponentially growing MT-4 cells were seeded at an initial density of 1 × 10^5 cells/mL in 96-well plates in RPMI-1640 medium, supplemented with 10% fetal bovine serum (FBS), 100 units/mL penicillin G and 100 μg/mL streptomycin. Cell cultures were then incubated at 37 °C in a humidified, 5% CO2 atmosphere, in the absence or presence of serial dilutions of tested compounds. Cell viability was determined after 96 h at 37 °C by the 3-(4,5-dimethylthiazol-2-yl)-2,5-diphenyl-tetrazolium bromide (MTT) method.
# [24] = test system: HIV-1 IIIB; assay: Anti-HIV-1 activity: protection of MT-4 cells from virus-induced cytopathogenicity (MTT); format: cell-based, Human Immunodeficiency Virus type-1; settings: Human immunodeficiency virus 1, IIIB, MT4, 96 h, read-out: HIV-1IIIB EC50
# Description: as §3
# The activity of compounds against HIV-1 was based on inhibition of virus-induced cytopathogenicity in MT-4 cell acutely infected with a multiplicity of infection (m.o.i.) of 0.01. Briefly, 50 μL of RPMI containing 1 × 10^4 MT-4 cells were added to each well of flat-bottom microtiter trays, containing 50 μL of RPMI without or with serial dilutions of test compounds. Then, 20 μL of a HIV-1 suspension containing 100 CCID50 were added. After a 4-day incubation at 37 °C, cell viability was determined by the MTT method.
MIC [1] [µg/mL],MIC [2] [µg/mL],MIC [3] [µg/mL],MIC [4] [µg/mL],MIC [5] [µg/mL],MIC [6] [µg/mL],MIC [7] [µg/mL],MIC [8] [µg/mL],MIC [9] [µg/mL],MIC [10] [µg/mL],MIC [11] [µg/mL],MIC [12] [µg/mL],MIC [14] [µg/mL],MIC [15] [µg/mL],MIC [16] [µg/mL],MIC [17] [µg/mL],MIC [18] [µg/mL],MIC [19] [µg/mL],MIC [20] [µg/mL],MIC [21] [µg/mL],Structure (SMILES),further results
4,32,2,4,4,64,64,64,0.5,16,0.25,2,0.5,< 0.12,0.25,0.25,1,0.25,0.25,0.5,"O=C(O)c1cn(C2CC2)c2cc(N3CCNCC3)c(F)cc2c1=O [Ciprofloxacin, reference compound]",MIC [13]: 1 µg/mL
16,16,16,16,16,32,16,16,16,16,16,8,16,8,16,8,4,16,16,16,"O=[N+]([O-])c1cc(NC(=S)Nc2ccccc2)ccc1Cl [Compound 23, 1-(4-chloro-3-nitrophenyl)-3-phenylthiourea]","MIC range towards staphylococci [22]: 8 to 16 µg/mL; MIC [13]: 16 µg/mL; melting point: 163 to 165 °C; CC50 at 96 h [23]: 23 µM; pEC50 ([24]; 50% protection of MT-4 cells from HIV-1 induced cytopathogenicity, MTT, 4-day incubation): < 4.64"

Structure (SMILES),MIC [1] [µg/mL],MIC [2] [µg/mL],MIC [3] [µg/mL],MIC [4] [µg/mL],MIC [5] [µg/mL],MIC [6] [µg/mL],MIC [7] [µg/mL],MIC [8] [µg/mL],MIC [9] [µg/mL],MIC [10] [µg/mL],MIC [11] [µg/mL],MIC [12] [µg/mL],MIC [14] [µg/mL],MIC [15] [µg/mL],MIC [16] [µg/mL],MIC [17] [µg/mL],MIC [18] [µg/mL],MIC [19] [µg/mL],MIC [20] [µg/mL],MIC [21] [µg/mL],further results
"O=[N+]([O-])c1cc(NC(=S)NC2CC3CCC2C3)ccc1Cl (stereo not shown) [Compound 24, 1-bicyclo[2.2.1]hept-2-yl-3-(4-chloro-3-nitrophenyl)thiourea]",4,4,4,4,4,4,4,4,8,4,16,16,8,8,8,8,32,8,16,8,MIC range towards staphylococci [22]: 8 to 16 µg/mL; melting point: 94 to 96 °C; CC50 at 96 h [23]: 16 µM; pEC50 [24]: < 4.80
